# Reference: patent publication US5985844A, “Homoerythromycin A derivatives modified at the 4"-and 8A-positions” (Merck & Co., Inc., priority 1992, dated 1999)
# Read-outs that look alike come from different tables or passages of the source.
# Legend:
# Test in all cases: liquid turbidimetric microtiter MIC, broth media
# Type in all cases: cell-based
# [1] = tested on: Enterobacter cloacae CL 4298
# Text: (§1) The antibacterial activities of the compounds of Examples 8 and 10 against a panel of aerobic Gram positive and negative bacteria is shown in Table I. Similarly, the antibacterial activities of the compounds of Examples 89, 94, 96, and 97 are presented in Table II. The assay employs a liquid turbidimetric microtiter method for the determination of the minimum inhibitory concentration (MIC) in broth media. […] The MIC is generally not an absolute value but rather a concentration range that falls within a two-fold dilution limit. Generally twelve two-fold dilutions of the test compound are employed with the initial concentration set at 128 mcg/ml.
# [2] = tested on: Enterococcus faecalis MB 5407
# Text: as §1
# Escherichia coli MB 2884 = tested on: Escherichia coli MB 2884
# Text: as §1
# [3] = tested on: Haemophilus influenzae AT 43163
# Text: as §1
# [4] = tested on: Haemophilus influenzae MB 5363
# Text: as §1
# [5] = tested on: Klebsiella pneumoniae MB 4005
# Text: as §1
# [6] = tested on: Staphylococcus aureus MB 2865
# Text: as §1
# [7] = tested on: Staphylococcus epidermidis MB 5414
# Text: as §1
# [8] = tested on: Streptococcus pneumoniae CL 2883
# Text: as §1
# [9] = tested on: Streptococcus pyogenes MB 2874
# Text: as §1
# [10] = tested on: Enterococcus faecium MB 5416; conditions: MB5416
# Text: as §1
# Escherichia coli MB 4926 = conditions: MB4926
# Text: as §1
# [11] = tested on: Pseudomonas stutzeri MB 1231; conditions: Stutzerimonas stutzeri, MB1231
# Text: as §1
# [12] = tested on: Staphylococcus haemolyticus MB 5412; conditions: MB5412
# Text: as §1
# [13] = tested on: Streptococcus agalactiae CL 1343; conditions: CL1343
# Text: as §1
# [14] = tested on: Streptococcus pyogenes MB 54061; conditions: MB54061
# Text: as §1
# [15] = tested on: Streptococcus viridans CL 2943; conditions: CL2943
# Text: as §1
Molecule,MIC [1],MIC [2],MIC (Escherichia coli MB 2884),MIC [3],MIC [4],MIC [5],MIC [6],MIC [7],MIC [8],MIC [9],"MIC (Escherichia coli MB 2884; MB2884, read-out: MIC)","MIC ([2]; MB5407, read-out: MIC)","MIC ([5]; MB4005, read-out: MIC)","MIC ([6]; MB2865, read-out: MIC)","MIC ([7]; MB5414, read-out: MIC)","MIC ([8]; CL2883, read-out: MIC)","MIC ([9]; MB2874, read-out: MIC)",also measured
"4""-Deoxy-4""-amino-9-deoxo-8a-aza-8a-methyl-8a-homoerythromycin A [Example 94]",≤ 0.06 µg/mL,4 µg/mL,0.12 µg/mL,0.25 µg/mL,0.5 µg/mL,0.12 µg/mL,1 µg/mL,0.5 µg/mL,≤ 0.06 µg/mL,≤ 0.06 µg/mL,–,–,–,–,–,–,–,–
"CC[C@H]1OC(=O)[C@H](C)[C@@H](O[C@H]2C[C@@](C)(OC)[C@@H](O)[C@H](C)O2)[C@H](C)[C@@H](O[C@@H]2O[C@H](C)C[C@H](N(C)C)[C@H]2O)[C@](C)(O)C[C@@H](C)C(=O)[C@H](C)[C@@H](O)[C@]1(C)O [Erythromycin A, erythromycin A]",16 µg/mL,1 µg/mL,–,2 µg/mL,2 µg/mL,32 µg/mL,0.12 µg/mL,0.12 µg/mL,≤ 0.06 µg/mL,≤ 0.06 µg/mL,16 µg/mL,–,–,–,–,–,–,–
"CC[C@H]1OC(=O)[C@H](C)[C@@H](O[C@H]2C[C@@](C)(OC)[C@@H](O)[C@H](C)O2)[C@H](C)[C@@H](O[C@@H]2O[C@H](C)C[C@H](N(C)C)[C@H]2O)[C@](C)(O)C[C@@H](C)NC[C@H](C)[C@@H](O)[C@]1(C)O [Example 8, 9-Deoxo-8a-aza-8a-homoerythromycin A]",–,–,–,–,–,–,–,–,–,–,4 µg/mL,8 µg/mL,8 µg/mL,0.5 µg/mL,1 µg/mL,≤ 0.06 µg/mL,≤ 0.06 µg/mL,MIC [10]: 0.25 µg/mL; MIC (Escherichia coli MB 4926): 2 µg/mL; MIC [11]: ≤ 0.06 µg/mL; MIC [12]: 0.5 µg/mL; MIC [13]: ≤ 0.06 µg/mL; MIC [14]: 128 µg/mL; MIC [15]: 8 µg/mL
"CC[C@H]1OC(=O)[C@H](C)[C@@H](O[C@H]2C[C@@](C)(OC)[C@H](N)[C@H](C)O2)[C@H](C)[C@@H](O[C@@H]2O[C@H](C)C[C@H](N(C)C)[C@H]2O)[C@](C)(O)C[C@@H](C)N(C)C[C@H](C)[C@@H](O)[C@]1(C)O [Example 97, 4""-Deoxy-4""-(R)-amino-9-deoxo-8a-aza-8a-methyl-8a-homoerythromycin A]",0.12 µg/mL,2 µg/mL,0.25 µg/mL,0.25 µg/mL,0.5 µg/mL,0.25 µg/mL,1 µg/mL,0.5 µg/mL,≤ 0.06 µg/mL,≤ 0.06 µg/mL,–,–,–,–,–,–,–,–
"CC[C@H]1OC(=O)[C@H](C)[C@@H](O[C@H]2C[C@@](C)(OC)[C@@H](N)[C@H](C)O2)[C@H](C)[C@@H](O[C@@H]2O[C@H](C)C[C@H](N(C)C)[C@H]2O)[C@](C)(O)C[C@@H](C)N(C)C[C@H](C)[C@@H](O)[C@]1(C)O [Example 96, 4""-Deoxy-4""-(S)-amino-9-deoxo-8a-aza-8a-methyl-8a-homoerythromycin A]",≤ 0.06 µg/mL,2 µg/mL,0.12 µg/mL,0.25 µg/mL,0.25 µg/mL,0.12 µg/mL,1 µg/mL,0.51 µg/mL,≤ 0.06 µg/mL,≤ 0.06 µg/mL,–,–,–,–,–,–,–,–
"CC[C@H]1OC(=O)[C@H](C)[C@@H](O[C@H]2C[C@@](C)(OC)[C@@H](O)[C@H](C)O2)[C@H](C)[C@@H](O[C@@H]2O[C@H](C)C[C@H](N(C)C)[C@H]2O)[C@](C)(O)C[C@@H](C)N(C)C[C@H](C)[C@@H](O)[C@]1(C)O [Example 10, 9-Deoxo-8a-aza-8a-methyl-8a-homoerythromycin A]",–,–,–,–,–,–,–,–,–,–,1 µg/mL,4 µg/mL,2 µg/mL,0.5 µg/mL,1 µg/mL,≤ 0.06 µg/mL,≤ 0.06 µg/mL,MIC [10]: 0.25 µg/mL; MIC (Escherichia coli MB 4926): 0.06 µg/mL; MIC [11]: ≤ 0.06 µg/mL; MIC [12]: 0.5 µg/mL; MIC [13]: ≤ 0.06 µg/mL; MIC [14]: 128 µg/mL; MIC [15]: 1 µg/mL
"CC[C@H]1OC(=O)[C@H](C)[C@@H](O[C@H]2C[C@@](C)(OC)[C@H](O)[C@H](C)O2)[C@H](C)[C@@H](O[C@@H]2O[C@H](C)C[C@H](N(C)C)[C@H]2O)[C@](C)(O)C[C@@H](C)N(C)C[C@H](C)[C@@H](O)[C@]1(C)O [Example 89, 4""-epi-9-deoxo-8a-aza-8a-methyl-8a-homoerythromycin A]",–,–,–,–,–,–,–,–,–,–,1 µg/mL,1 µg/mL,1 µg/mL,0.5 µg/mL,0.25 µg/mL,≤ 0.06 µg/mL,≤ 0.06 µg/mL,"MIC ([1]; CL4298, read-out: MIC): 0.5 µg/mL; MIC ([3]; AT43163, read-out: MIC): 0.5 µg/mL; MIC ([4]; MB5363, read-out: MIC): 0.5 µg/mL"
